Test results from patent US11759462B2, “Spirocyclic compounds as tryptophan hydroxylase inhibitors” (priority 2013, dated 2023).

Biological target: T1, Recombinant human TPH1 (MBP tagged) (Homo sapiens, UniProt P17752)
T1 construct: cloning full length human TPH1 cDNA in to a bacterial pMAL-c5E expression vector; made in house; host or cells: E. coli BL21 (DE3)
T1 sequence (P17752 1-444): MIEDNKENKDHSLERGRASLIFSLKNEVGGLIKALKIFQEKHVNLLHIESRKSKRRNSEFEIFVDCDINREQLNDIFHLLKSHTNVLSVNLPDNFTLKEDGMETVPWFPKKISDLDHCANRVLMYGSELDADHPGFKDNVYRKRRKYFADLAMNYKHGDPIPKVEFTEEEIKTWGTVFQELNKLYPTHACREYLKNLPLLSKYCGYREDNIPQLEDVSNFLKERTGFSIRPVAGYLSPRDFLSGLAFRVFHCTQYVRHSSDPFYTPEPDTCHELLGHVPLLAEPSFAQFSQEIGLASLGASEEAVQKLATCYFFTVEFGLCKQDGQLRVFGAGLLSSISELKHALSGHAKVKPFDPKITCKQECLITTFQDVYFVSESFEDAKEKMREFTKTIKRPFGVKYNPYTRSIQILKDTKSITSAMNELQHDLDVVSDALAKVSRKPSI
Test: TPH1 in vitro inhibition assay (kinetic fluorescence)
Format: biochemical
Conditions: read-out: TPH1 Range (TPH1 inhibition IC50)
Procedure, shortened: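 Final mix: 15 nM MBP-TPH1, 30 μM Trp, 36 μM 6-methyltetrahydropterin, 25 μM ferrous ammonium sulfate, 50 mM MES pH 7.1, 1% DMSO, room temperature.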

IC50 | Structure (SMILES)
50 to 300 nM | Cc1ccc(-c2ccc([C@@H](Oc3cc(N4CCC5(CC4)CN[C@H](C(=O)O)C5)nc(N)n3)C(F)(F)F)cc2)cn1 [Example 55bo, (S)-8-(2-amino-6-((R)-2,2,2-trifluoro-1-(4-(6-methylpyridin-3-yl)phenyl)ethoxy)pyrimidin-4-yl)-2,8-diazaspiro[4.5]decane-3-carboxylic acid]
50 to 300 nM | Nc1nc(O[C@H](c2ccc(-c3ccc(C(=O)N4CCCC4)cc3)cc2)C(F)(F)F)cc(N2CCC3(CC2)CN[C@H](C(=O)O)C3)n1 [Example 55bp, (S)-8-(2-amino-6-((R)-2,2,2-trifluoro-1-(4′-(pyrrolidine-1-carbonyl)-[1,1′-biphenyl]-4-yl)ethoxy)pyrimidin-4-yl)-2,8-diazaspiro[4.5]decane-3-carboxylic acid]
300 to 3000 nM | Nc1nc(O[C@H](c2ccc(-c3cccc(C(=O)O)c3)cc2)C(F)(F)F)cc(N2CCC3(CC2)CN[C@H](C(=O)O)C3)n1 [Example 55bq, (S)-8-(2-amino-6-((R)-1-(3′-carboxy-[1,1′-biphenyl]-4-yl)-2,2,2-trifluoroethoxy)pyrimidin-4-yl)-2,8-diazaspiro[4.5]decane-3-carboxylic acid]
300 to 3000 nM | Nc1nc(O[C@H](c2ccc(-c3ccc(C(=O)O)cc3)cc2)C(F)(F)F)cc(N2CCC3(CC2)CN[C@H](C(=O)O)C3)n1 [Example 55br, (S)-8-(2-amino-6-((R)-1-(4′-carboxy-[1,1′-biphenyl]-4-yl)-2,2,2-trifluoroethoxy)pyrimidin-4-yl)-2,8-diazaspiro[4.5]decane-3-carboxylic acid]
300 to 3000 nM | CCCc1ccc(-c2ccc([C@@H](Oc3cc(N4CCC5(CC4)CN[C@H](C(=O)O)C5)nc(N)n3)C(F)(F)F)cc2)cc1 [Example 55bs, (S)-8-(2-amino-6-((R)-2,2,2-trifluoro-1-(4′-propyl-[1,1′-biphenyl]-4-yl)ethoxy)pyrimidin-4-yl)-2,8-diazaspiro[4.5]decane-3-carboxylic acid]
300 to 3000 nM | Nc1nc(O[C@H](c2ccc(-c3cccc(CO)c3)cc2)C(F)(F)F)cc(N2CCC3(CC2)CN[C@H](C(=O)O)C3)n1 [Example 55bt, (S)-8-(2-amino-6-((R)-2,2,2-trifluoro-1-(3′-(hydroxymethyl)-[1,1′-biphenyl]-4-yl)ethoxy)pyrimidin-4-yl)-2,8-diazaspiro[4.5]decane-3-carboxylic acid]
300 to 3000 nM | Nc1nc(O[C@H](c2ccc(-c3ccccc3CO)cc2)C(F)(F)F)cc(N2CCC3(CC2)CN[C@H](C(=O)O)C3)n1 [Example 55bu, (S)-8-(2-amino-6-((R)-2,2,2-trifluoro-1-(2′-(hydroxymethyl)-[1,1′-biphenyl]-4-yl)ethoxy)pyrimidin-4-yl)-2,8-diazaspiro[4.5]decane-3-carboxylic acid]
300 to 3000 nM | CC(C)Oc1ccc(-c2ccc([C@@H](Oc3cc(N4CCC5(CC4)CN[C@H](C(=O)O)C5)nc(N)n3)C(F)(F)F)cc2)cc1 [Example 55bv, (S)-8-(2-amino-6-((R)-2,2,2-trifluoro-1-(4′-isopropoxy-[1,1′-biphenyl]-4-yl)ethoxy)pyrimidin-4-yl)-2,8-diazaspiro[4.5]decane-3-carboxylic acid]
50 to 300 nM | CN(C)C(=O)c1ccc(-c2ccc([C@@H](Oc3cc(N4CCC5(CC4)CN[C@H](C(=O)O)C5)nc(N)n3)C(F)(F)F)cc2)cc1 [Example 55bw, (S)-8-(2-amino-6-((R)-1-(4′-(dimethylcarbamoyl)-[1,1′-biphenyl]-4-yl)-2,2,2-trifluoroethoxy)pyrimidin-4-yl)-2,8-diazaspiro[4.5]decane-3-carboxylic acid]
300 to 3000 nM | Nc1nc(O[C@H](c2ccc(-c3cccc(C(=O)N4CCCCC4)c3)cc2)C(F)(F)F)cc(N2CCC3(CC2)CN[C@H](C(=O)O)C3)n1 [Example 55bx, (S)-8-(2-amino-6-((R)-2,2,2-trifluoro-1-(3′-(piperidine-1-carbonyl)-[1,1′-biphenyl]-4-yl)ethoxy)pyrimidin-4-yl)-2,8-diazaspiro[4.5]decane-3-carboxylic acid]
300 to 3000 nM | CN(C)Cc1ccccc1-c1ccc([C@@H](Oc2cc(N3CCC4(CC3)CN[C@H](C(=O)O)C4)nc(N)n2)C(F)(F)F)cc1 [Example 55by, (S)-8-(2-amino-6-((R)-1-(2′-((dimethylamino)methyl)-[1,1′-biphenyl]-4-yl)-2,2,2-trifluoroethoxy)pyrimidin-4-yl)-2,8-diazaspiro[4.5]decane-3-carboxylic acid]
50 to 300 nM | CCc1ccc(-c2ccc([C@@H](Oc3cc(N4CCC5(CC4)CN[C@H](C(=O)O)C5)nc(N)n3)C(F)(F)F)cc2)cc1 [Example 55bz, (S)-8-(2-amino-6-((R)-1-(4′-ethyl-[1,1′-biphenyl]-4-yl)-2,2,2-trifluoroethoxy)pyrimidin-4-yl)-2,8-diazaspiro[4.5]decane-3-carboxylic acid]
50 to 300 nM | Cn1cnc2cc(-c3ccc([C@@H](Oc4cc(N5CCC6(CC5)CN[C@H](C(=O)O)C6)nc(N)n4)C(F)(F)F)cc3)ccc21 [Example 55c, (S)-8-(2-amino-6-((R)-2,2,2-trifluoro-1-(4-(1-methyl-1H-benzo[d]imidazol-5-yl)phenyl)ethoxy)pyrimidin-4-yl)-2,8-diazaspiro[4.5]decane-3-carboxylic acid]
50 to 300 nM | Nc1nc(O[C@H](c2ccc(-c3cccc(O)c3)cc2)C(F)(F)F)cc(N2CCC3(CC2)CN[C@H](C(=O)O)C3)n1 [Example 55ca, (S)-8-(2-amino-6-((R)-2,2,2-trifluoro-1-(3′-hydroxy-[1,1′-biphenyl]-4-yl)ethoxy)pyrimidin-4-yl)-2,8-diazaspiro[4.5]decane-3-carboxylic acid]
50 to 300 nM | Nc1nc(O[C@H](c2ccc(-c3ccc(O)cc3)cc2)C(F)(F)F)cc(N2CCC3(CC2)CN[C@H](C(=O)O)C3)n1 [Example 55cb, (S)-8-(2-amino-6-((R)-2,2,2-trifluoro-1-(4′-hydroxy-[1,1′-biphenyl]-4-yl)ethoxy)pyrimidin-4-yl)-2,8-diazaspiro[4.5]decane-3-carboxylic acid]
50 to 300 nM | COc1ccc(-c2ccc([C@@H](Oc3cc(N4CCC5(CC4)CN[C@H](C(=O)O)C5)nc(N)n3)C(F)(F)F)cc2)c(OC)c1 [Example 55cc, (S)-8-(2-amino-6-((R)-1-(2′,4′-dimethoxy-[1,1′-biphenyl]-4-yl)-2,2,2-trifluoroethoxy)pyrimidin-4-yl)-2,8-diazaspiro[4.5]decane-3-carboxylic acid]
300 to 3000 nM | Nc1nc(O[C@H](c2ccc(-c3ccc(C(F)(F)F)cc3)cc2)C(F)(F)F)cc(N2CCC3(CC2)CN[C@H](C(=O)O)C3)n1 [Example 55cd, (S)-8-(2-amino-6-((R)-2,2,2-trifluoro-1-(4′-(trifluoromethyl)-[1,1′-biphenyl]-4-yl)ethoxy)pyrimidin-4-yl)-2,8-diazaspiro[4.5]decane-3-carboxylic acid]
300 to 3000 nM | Nc1nc(O[C@H](c2ccc(-c3ccccc3C(F)(F)F)cc2)C(F)(F)F)cc(N2CCC3(CC2)CN[C@H](C(=O)O)C3)n1 [Example 55ce, (S)-8-(2-amino-6-((R)-2,2,2-trifluoro-1-(2′-(trifluoromethyl)-[1,1′-biphenyl]-4-yl)ethoxy)pyrimidin-4-yl)-2,8-diazaspiro[4.5]decane-3-carboxylic acid]
3000 to 10000 nM | Nc1nc(O[C@H](c2ccc(-c3c(F)cccc3F)cc2)C(F)(F)F)cc(N2CCC3(CC2)CN[C@H](C(=O)O)C3)n1 [Example 55cf, (S)-8-(2-amino-6-((R)-1-(2′,6′-difluoro-[1,1′-biphenyl]-4-yl)-2,2,2-trifluoroethoxy)pyrimidin-4-yl)-2,8-diazaspiro[4.5]decane-3-carboxylic acid]
300 to 3000 nM | Cc1cccc(C)c1-c1ccc([C@@H](Oc2cc(N3CCC4(CC3)CN[C@H](C(=O)O)C4)nc(N)n2)C(F)(F)F)cc1 [Example 55cg, (S)-8-(2-amino-6-((R)-1-(2′,6′-dimethyl-[1,1′-biphenyl]-4-yl)-2,2,2-trifluoroethoxy)pyrimidin-4-yl)-2,8-diazaspiro[4.5]decane-3-carboxylic acid]
50 to 300 nM | Cc1ccc(-c2ccc([C@@H](Oc3cc(N4CCC5(CC4)CN[C@H](C(=O)O)C5)nc(N)n3)C(F)(F)F)cc2)cc1C [Example 55ch, (S)-8-(2-amino-6-((R)-1-(3′,4′-dimethyl-[1,1′-biphenyl]-4-yl)-2,2,2-trifluoroethoxy)pyrimidin-4-yl)-2,8-diazaspiro[4.5]decane-3-carboxylic acid]
300 to 3000 nM | CC(C)(C)c1ccc(-c2ccc([C@@H](Oc3cc(N4CCC5(CC4)CN[C@H](C(=O)O)C5)nc(N)n3)C(F)(F)F)cc2)cc1 [Example 55ci, (S)-8-(2-amino-6-((R)-1-(4′-(tert-butyl)-[1,1′-biphenyl]-4-yl)-2,2,2-trifluoroethoxy)pyrimidin-4-yl)-2,8-diazaspiro[4.5]decane-3-carboxylic acid]
300 to 3000 nM | CC(C)c1ccc(-c2ccc([C@@H](Oc3cc(N4CCC5(CC4)CN[C@H](C(=O)O)C5)nc(N)n3)C(F)(F)F)cc2)cc1 [Example 55cj, (S)-8-(2-amino-6-((R)-2,2,2-trifluoro-1-(4′-isopropyl-[1,1′-biphenyl]-4-yl)ethoxy)pyrimidin-4-yl)-2,8-diazaspiro[4.5]decane-3-carboxylic acid]
